Laboratory results taken from ChEMBL document CHEMBL1177782, “Synthesis and biological evaluation of oxazole derivatives as T-type calcium channel blockers” (Bioorg Med Chem Lett, 2010).

Legend:
[1] = target: T1, Voltage-dependent T-type calcium channel subunit alpha-1G (Homo sapiens, UniProt O43497); assay: Inhibition of T-type CaV3.1 channel expressed in HEK293 cells assessed as inhibition of calcium current at 10 uM by fluorescence based HTS FDSS6000 assay; type: cell-based
[2] = target: T1, Voltage-dependent T-type calcium channel subunit alpha-1G; assay: Inhibition of T-type CaV3.1 channel expressed in HEK293 cells assessed as inhibition of calcium current by automated patch-clamp assay; type: cell-based

T1 sequence (O43497 whole entry): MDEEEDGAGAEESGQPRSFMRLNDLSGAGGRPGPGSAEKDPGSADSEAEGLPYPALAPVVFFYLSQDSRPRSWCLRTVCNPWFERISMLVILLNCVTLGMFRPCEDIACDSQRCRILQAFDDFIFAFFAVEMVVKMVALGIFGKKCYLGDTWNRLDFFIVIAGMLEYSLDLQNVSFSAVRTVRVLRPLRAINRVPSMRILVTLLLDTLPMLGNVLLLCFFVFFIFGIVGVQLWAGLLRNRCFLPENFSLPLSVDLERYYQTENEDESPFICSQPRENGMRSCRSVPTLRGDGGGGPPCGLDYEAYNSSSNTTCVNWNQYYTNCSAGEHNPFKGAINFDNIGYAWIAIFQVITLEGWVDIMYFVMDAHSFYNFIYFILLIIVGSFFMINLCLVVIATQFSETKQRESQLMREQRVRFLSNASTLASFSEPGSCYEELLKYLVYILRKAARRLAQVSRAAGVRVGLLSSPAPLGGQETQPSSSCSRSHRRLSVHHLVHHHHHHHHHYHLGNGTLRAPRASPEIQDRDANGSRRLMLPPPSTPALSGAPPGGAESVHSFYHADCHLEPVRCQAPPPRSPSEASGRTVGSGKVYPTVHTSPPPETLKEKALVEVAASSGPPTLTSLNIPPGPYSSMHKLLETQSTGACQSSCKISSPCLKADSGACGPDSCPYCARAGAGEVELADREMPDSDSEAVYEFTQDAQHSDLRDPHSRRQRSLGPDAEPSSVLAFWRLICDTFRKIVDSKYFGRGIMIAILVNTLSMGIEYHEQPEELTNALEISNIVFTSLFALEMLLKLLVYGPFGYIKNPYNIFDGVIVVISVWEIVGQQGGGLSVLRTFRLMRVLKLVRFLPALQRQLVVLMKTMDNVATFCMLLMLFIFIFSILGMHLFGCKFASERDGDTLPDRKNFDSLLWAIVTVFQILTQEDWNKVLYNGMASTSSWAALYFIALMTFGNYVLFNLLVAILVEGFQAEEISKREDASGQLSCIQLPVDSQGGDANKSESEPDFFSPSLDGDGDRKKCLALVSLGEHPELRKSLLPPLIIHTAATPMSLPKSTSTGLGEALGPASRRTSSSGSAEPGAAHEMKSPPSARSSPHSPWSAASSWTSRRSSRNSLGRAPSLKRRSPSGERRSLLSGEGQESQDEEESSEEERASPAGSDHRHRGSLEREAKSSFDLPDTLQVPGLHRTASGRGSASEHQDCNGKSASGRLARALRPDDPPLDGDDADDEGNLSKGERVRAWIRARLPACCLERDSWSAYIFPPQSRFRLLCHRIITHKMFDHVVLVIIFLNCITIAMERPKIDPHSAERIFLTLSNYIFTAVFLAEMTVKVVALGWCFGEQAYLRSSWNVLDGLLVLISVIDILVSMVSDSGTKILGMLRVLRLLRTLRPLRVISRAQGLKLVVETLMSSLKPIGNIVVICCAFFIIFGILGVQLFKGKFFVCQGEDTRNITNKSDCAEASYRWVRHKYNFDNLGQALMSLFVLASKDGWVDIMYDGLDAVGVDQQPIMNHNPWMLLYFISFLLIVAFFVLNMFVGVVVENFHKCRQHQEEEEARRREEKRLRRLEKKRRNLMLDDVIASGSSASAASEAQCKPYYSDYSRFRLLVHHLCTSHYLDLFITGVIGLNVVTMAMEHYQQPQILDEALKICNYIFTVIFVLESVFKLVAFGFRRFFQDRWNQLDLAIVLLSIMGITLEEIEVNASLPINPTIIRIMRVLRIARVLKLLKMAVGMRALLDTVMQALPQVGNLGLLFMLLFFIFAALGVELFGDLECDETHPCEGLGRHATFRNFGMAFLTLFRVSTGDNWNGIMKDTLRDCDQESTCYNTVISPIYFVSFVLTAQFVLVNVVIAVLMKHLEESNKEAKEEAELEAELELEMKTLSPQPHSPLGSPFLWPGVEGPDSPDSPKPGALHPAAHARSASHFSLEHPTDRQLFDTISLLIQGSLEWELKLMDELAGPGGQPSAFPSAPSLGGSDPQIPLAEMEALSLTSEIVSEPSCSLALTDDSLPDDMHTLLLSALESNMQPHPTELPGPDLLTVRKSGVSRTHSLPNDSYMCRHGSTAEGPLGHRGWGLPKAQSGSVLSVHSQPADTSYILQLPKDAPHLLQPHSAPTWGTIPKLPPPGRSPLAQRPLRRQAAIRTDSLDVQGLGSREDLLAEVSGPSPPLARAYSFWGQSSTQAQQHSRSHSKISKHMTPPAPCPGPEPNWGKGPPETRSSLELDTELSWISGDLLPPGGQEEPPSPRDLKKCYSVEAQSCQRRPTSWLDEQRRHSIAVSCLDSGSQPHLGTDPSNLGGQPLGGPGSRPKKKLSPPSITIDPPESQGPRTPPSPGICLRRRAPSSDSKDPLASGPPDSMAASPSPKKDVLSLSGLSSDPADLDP

inhibition [1] [%]	IC50 [2] [nM]	Structure (SMILES)
48.1	–	CCCc1nc(-c2ccccc2)c(CNCCN2CCN(c3ccccn3)CC2)o1
46.5	–	CCCc1nc(-c2ccccc2)c(CNCCN2CCN(c3ccccc3F)CC2)o1
53.9	130000	CCCc1nc(-c2ccccc2)c(CNCCCN2CCN(c3ccc(C)cc3)CC2)o1
54.4	16100	CCCc1nc(-c2ccccc2)c(CNCCCN2CCN(c3ccccc3F)CC2)o1
39.7	–	CCCc1nc(-c2ccccc2)c(CNCCN2CCN(c3ccccc3OC)CC2)o1
56.3	1940	CCCc1nc(-c2ccccc2)c(CNCCN2CCN(c3cccc(C(F)(F)F)c3)CC2)o1
55.2	1780	CCCc1nc(-c2ccccc2)c(CNCCCN2CCN(c3cccc(C)c3C)CC2)o1
58.7	1300	CCCc1nc(-c2ccccc2)c(CNCCN2CCN(c3ccc(C(F)(F)F)cc3)CC2)o1
43.1	–	CCCc1nc(-c2ccccc2)c(CNCCN2CCN(c3cccc(C)c3)CC2)o1
51.5	9200	CCCc1nc(-c2ccccc2)c(CNCCN2CCN(c3ccc(OC)cc3)CC2)o1
51.2	1450	CCCc1nc(-c2ccccc2)c(CNCCN2CCN(c3cccc(Cl)c3)CC2)o1
63.2	1310	CCCc1nc(-c2ccccc2)c(CNCCCN2CCN(c3ccc(Cl)cc3)CC2)o1
47.8	1190	CCCc1nc(-c2ccccc2)c(CNCCCN2CCN(c3cccc(C)c3)CC2)o1
62.3	3350	CCCc1nc(-c2ccccc2)c(CNCCN2CCN(c3cccc(F)c3)CC2)o1
64.3	2220	CCCc1nc(-c2ccccc2)c(CNCCN2CCN(c3ccc(C)cc3C)CC2)o1
71.8	7470	CCCc1nc(-c2ccccc2)c(CNCCN2CCN(C(c3ccccc3)c3ccccc3)CC2)o1

More lines, now with the values behind:

Structure (SMILES)	inhibition [1] [%]	IC50 [2] [nM]
CCCc1nc(-c2ccccc2)c(CNCCCN2CCN(c3ccc(OC)cc3)CC2)o1	42.1	–
CCCc1nc(-c2ccccc2)c(CNCCN2CCN(c3ccccc3Cl)CC2)o1	60.1	4370
CCCc1nc(-c2ccccc2)c(CNCCCN2CCN(c3ccc(C(F)(F)F)cc3)CC2)o1	51.6	7250
CCCc1nc(-c2ccccc2)c(CNCCCN2CCN(c3ccccc3Cl)CC2)o1	64.7	2800
CCCc1nc(-c2ccccc2)c(CNCCCN2CCN(c3ccccc3)CC2)o1	43.7	–
CCCc1nc(-c2ccccc2)c(CNCCCN2CCN(c3cccc(F)c3)CC2)o1	68.9	3030
CCCc1nc(-c2ccccc2)c(CNCCN2CCN(c3ccccc3C(F)(F)F)CC2)o1	54.6	2100
Cc1nc(-c2ccccc2)c(CNCCCN2CCN(c3ccc(Cl)cc3)CC2)o1	38.1	–
CCCc1nc(-c2ccccc2)c(CNCCCN2CCN(c3ccccc3OC)CC2)o1	41	–
CCCc1nc(-c2ccccc2)c(CNCCN2CCN(c3ccc(C)cc3)CC2)o1	48.1	–
CCCc1nc(-c2ccccc2)c(CNCCCN2CCN(c3cccc(OC)c3)CC2)o1	36.4	–
CCCc1nc(-c2ccccc2)c(CNCCN2CCN(c3ccccc3C)CC2)o1	51.3	4300
CCCc1nc(-c2ccccc2)c(CNCCN2CCN(c3ccc(C)c(C)c3)CC2)o1	67.9	2220
CCCc1nc(-c2ccccc2)c(CNCCN2CCN(c3cccc(C)c3C)CC2)o1	66.7	1710
Cc1nc(-c2ccccc2)c(CNCCN2CCN(C(c3ccccc3)c3ccccc3)CC2)o1	57.3	–
CCCc1nc(-c2ccccc2)c(CNCCCN2CCN(c3ccc(C)c(C)c3)CC2)o1	54.6	3020
CCCc1nc(-c2ccccc2)c(CNCCN2CCN(c3ccccc3)CC2)o1	54.3	10200
CCCc1nc(-c2ccccc2)c(CNCCCN2CCN(c3ccccc3C)CC2)o1	54.5	8750
CCCc1nc(-c2ccccc2)c(CNCCCN2CCN(c3ccc(F)cc3)CC2)o1	62.5	3210
CCCc1nc(-c2ccccc2)c(CNCCN2CCN(c3ccc(F)cc3)CC2)o1	54.1	7080
CCCc1nc(-c2ccccc2)c(CNCCCN2CCN(c3ccccc3C(F)(F)F)CC2)o1	45	–
CCCc1nc(-c2ccccc2)c(CNCCCN2CCN(c3cccc(Cl)c3)CC2)o1	65.9	1750
CCCc1nc(-c2ccccc2)c(CNCCN2CCN(c3ccc(Cl)cc3)CC2)o1	55.8	2820
CCCc1nc(-c2ccccc2)c(CNCCN2CCN(c3cccc(OC)c3)CC2)o1	40.2	–
CCCc1nc(-c2ccccc2)c(CNCCCN2CCN(c3cccc(C(F)(F)F)c3)CC2)o1	51.6	650
